Key:
[1] = system: bacterial viability of stimulated saliva samples; assay: Salivary ATP bacteria viability assay (luciferase); type: cell-based; details: one-minute treatment; for Log10 of Viability, Mean: average of two experiments
Description: In order to screen for preliminary antibacterial efficacy, a NaDCC solution was subjected to an ATP-bacteria viability test. This method determines the number of viable bacterial cells in culture based on the quantification of adenosine triphosphate (ATP) present. ATP is a product of the catabolism of glucose (glycolysis) and aerobic respiration. This essential nucleoside triphosphate powers virtually all cell functions and is used by bacteria during cell division, the synthesis of nucleic acids and proteins, the transport of macromolecules, cell signaling, and bacterial motility. Given its importance, ATP signals the presence of metabolically active cells, and therefore it may be used to quantify cell viability.
In a reaction, luciferin is converted to oxiluciferin by the luciferase enzyme in the presence of ATP and oxygen. A direct relationship exists between the light output of the reaction and the number of metabolically active cells that makes this method ideal for the rapid screening of antimicrobial agents during the development of oral care formulas to establish their potential antibacterial efficacy. A salivary ATP assay was used to evaluate the antibacterial efficacy of NaDCC-containing tablets on bacterial viability of stimulated saliva samples.
In this assay, a mouthwash solution containing 0.075% cetylpyridinium chloride (CPC), a known antibacterial agent, was used as a positive control. An NaDCC tablet containing only NaDCC and weighing 20 mg was disintegrated in two phosphate buffered saline (PBS) solutions to yield both a 500 ppm NaDCC solution and a 1000 ppm NaDCC solution. […] Lower viability translates into higher antibacterial properties. The data below in Table 4 was calculated using the Tukey Method with a 95% Confidence Interval for the mean.

[2] = pH-dependent bleaching of Lissamine green B by NaDCC
Description: Two different solutions, Solution A and Solution B, were prepared. Solution A contained 2% SAPP, 0.1% Lissamine green B dye, and 97.9% water. Solution B contained 2% tetrasodium pyrophosphate (TSPP), 0.1% Lissamine green B dye, and 97.9% water. Next, solutions with various pHs were obtained by mixing the two different solutions A and B, in different volume ratios (i.e., 1:0, 1:5, 1:1, 5:1, and 0:1). 20 mL of the resulting solutions were added to 10 mg NaDCC, and the time required to bleach away all of the Lissamine green B color was recorded.

Row | Compound | Log10 of Viability, Mean ([1]; 0.075% CPC mouthwash solution (positive control)) | Time to bleach ([2]; 10 mg NaDCC in 20 mL Mix Solution 1, VA:VB 1:0, pH 4.6) | Time to bleach ([2]; 10 mg NaDCC in 20 mL Mix Solution 2, VA:VB 1:5, pH 5.8) | Time to bleach ([2]; 10 mg NaDCC in 20 mL Mix Solution 3, VA:VB 1:1, pH 7.4) | Time to bleach ([2]; 10 mg NaDCC in 20 mL Mix Solution 4, VA:VB 5:1, pH 8.8) | Time to bleach ([2]; 10 mg NaDCC in 20 mL Mix Solution 5, VA:VB 0:1, pH 10.5) | Log10 of Viability, Mean ([1]; 500 ppm NaDCC in PBS) | Log10 of Viability, Mean ([1]; 1000 ppm NaDCC in PBS) | antibacterial properties compared to the 0.075% CPC solution ([1]; NaDCC solutions at both 500 ppm and 1000 ppm in PBS)
1 | CCCCCCCCCCCCCCCC[n+]1ccccc1 [CPC, cetylpyridinium chloride, reference compound] | 5.061 ± 0.032 | – | – | – | – | – | – | – | –
2 | O=c1nc(O)n(Cl)c(=O)n1Cl [NaDCC, sodium dichloroisocyanurate] | – | Instantaneous | 0.25 min | 8 min | 35 min | 80 min | 4.139 ± 0.001 | 3.530 ± 0.048 | statistically significant improvement
